The results in this text go back to publication PMC3726336, “Product inhibition of cellulases studied with ^14C-labeled cellulose substrates” (Biotechnology for Biofuels, 2013).

One test concerns the target CtCel7A (Chaetomium thermophilum, UniProt A7WNU1). The experiment in a line: Inhibition of synergistic hydrolysis of 14C-BC by CtCel7A (supplemented with EG TrCel5A). As to conditions: 14C-BC substrate, read-out: IC50 for cellobiose. Type of test: biochemical. As for the experimental part: To study the cellobiose inhibition of GH7 CBHs, the synergistic hydrolysis of ^14C-BC in the presence of added cellobiose was followed (Figure 3, Additional file 1: Figures S1 and S2). Because the cellobiose inhibition of the EG TrCel5A is much weaker than that of GH7 CBHs, the inhibition of synergistic hydrolysis apparently reflects the inhibition of CBH. The strength of cellobiose inhibition was analyzed using plots of (DCB/DCB=0) versus [cellobiose], where DCB and DCB=0 represent the degree of conversion of ^14C-BC in the presence and absence of cellobiose, respectively (Figure 4, Additional file 1: Figure S3). In the case of experiments without added cellobiose, the reactions were provided with N188BG to prevent the inhibition of the CBH by the cellobiose released during hydrolysis. Experiments with no added cellobiose and without BG were also conducted. […] Therefore, the concentration of the cellobiose released during hydrolysis was added to the concentration of externally supplied cellobiose in generating the plots in Figure 4 and Additional file 1: Figure S3. For the calculation of IC50 values, the data were first fitted to hyperbolae:
where [CB] is the concentration of cellobiose; [^14CBC] is the concentration of ^14C-BC used in the experiment; and C1, C2 and H are empirical constants. Equation 5 differs from Equation 1 by the presence of constant H. H was included to improve the fit and is a constant that accounts for the background radioactivity (the degree of conversion that is independent of CBH). The degree of conversion resulting from the activity of the EG was measured in a separate experiment (Additional file 1: Figure S4) and was subtracted from the degree of conversion resulting from the synergistic hydrolysis. Thus, in the case of complete inhibition, H should have a value of zero. […] Provided with the values of C1, C2 and H, the value of IC50 was calculated as follows: […]
Using the time course data measured in the presence and absence of cellobiose, the IC50 values were first found separately for each time point (Figure 4A). […]

In the next test the target is T1, TrCel6A (Trichoderma reesei, UniProt P07987).
T1 construct: TrCel6A was purified from the culture filtrate of Tr QM 9414 as described previously; made in house; host or cells: Trichoderma reesei QM 9414 culture filtrate (native producer)
T1 sequence (P07987 25-471): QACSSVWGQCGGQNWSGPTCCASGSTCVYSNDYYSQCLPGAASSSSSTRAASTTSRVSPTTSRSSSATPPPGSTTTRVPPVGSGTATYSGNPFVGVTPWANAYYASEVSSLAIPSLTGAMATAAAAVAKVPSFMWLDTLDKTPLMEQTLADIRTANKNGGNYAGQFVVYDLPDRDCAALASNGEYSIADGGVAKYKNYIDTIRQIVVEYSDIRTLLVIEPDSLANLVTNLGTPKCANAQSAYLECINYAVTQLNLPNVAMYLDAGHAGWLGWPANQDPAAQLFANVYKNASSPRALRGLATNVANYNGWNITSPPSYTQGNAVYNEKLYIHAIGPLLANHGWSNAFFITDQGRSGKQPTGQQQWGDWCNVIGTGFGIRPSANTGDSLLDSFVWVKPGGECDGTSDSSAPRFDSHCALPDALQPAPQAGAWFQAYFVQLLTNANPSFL
The experiment in a line: Inhibition of hydrolysis of 14C-BMCC by TrCel6A. The class given is biochemical. An excerpt: Here, we characterized the cellobiose and glucose inhibition of TrCel6A and its thermophilic counterpart, CtCel6A [9, 63]. First, the cellobiose inhibition of the synergistic hydrolysis of ^14C-BC by TrCel6A and TrCel5A was studied (Figure 7A). As TrCel6A was less sensitive to cellobiose inhibition than TrCel7A, the contribution of the cellobiose released during hydrolysis was not significant, and an average (DCB/DCB=0) over all time points was used in plotting (DCB/DCB=0) versus [cellobiose] (Figure 7D). No significant systematic variation of DCB/DCB=0 depending on hydrolysis time was observed. As in the case of GH7 CBHs, the IC50 value was found using Equations 5 and 6. Because the IC50 value for synergistic hydrolysis (Table 3) was of the same order as the apparent Ki value reported for TrCel5A [31], we further tested the inhibition of individual TrCel6A. BC is not a good substrate for TrCel6A, but its acid-treated derivative, BMCC, is readily degraded by the enzyme. Therefore, we prepared ^14C-BMCC by the heterogeneous acid hydrolysis of ^14C-BC. […]
GH6 CBHs were assessed by observing the hydrolysis of ^14C-BMCC. ^14C-BMCC (0.25 g l^-1) was incubated (with shaking at 350 rpm) with CBH (0.25 μM) and N188BG (0.06 μM) in 50 mM sodium acetate buffer, pH 5.0, containing BSA (0.1 g l^-1). […]

Read-outs that look alike come from different tables or passages of the source.

Chain of CtCel7A (A7WNU1 entry or part of it): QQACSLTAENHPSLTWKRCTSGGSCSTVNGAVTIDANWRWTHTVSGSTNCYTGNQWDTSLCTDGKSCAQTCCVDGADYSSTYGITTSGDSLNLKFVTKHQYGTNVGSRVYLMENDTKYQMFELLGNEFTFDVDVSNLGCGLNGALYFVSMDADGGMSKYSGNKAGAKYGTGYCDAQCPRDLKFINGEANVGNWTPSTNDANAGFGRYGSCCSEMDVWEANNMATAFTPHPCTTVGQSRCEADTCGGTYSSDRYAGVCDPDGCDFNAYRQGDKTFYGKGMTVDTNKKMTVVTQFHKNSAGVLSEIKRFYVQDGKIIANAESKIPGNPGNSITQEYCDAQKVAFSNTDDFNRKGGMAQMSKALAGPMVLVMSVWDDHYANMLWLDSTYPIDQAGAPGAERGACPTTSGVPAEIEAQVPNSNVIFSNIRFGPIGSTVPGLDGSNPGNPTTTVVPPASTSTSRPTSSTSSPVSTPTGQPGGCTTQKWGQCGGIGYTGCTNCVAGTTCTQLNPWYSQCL

In general, IC50 refers to the concentration at which inhibition is half-maximal. `O=C[C@H](O)[C@@H](O)[C@H](O[C@@H]1O[C@H](CO)[C@@H](O)[C@H](O)[C@H]1O)[C@H](O)CO` [cellobiose, Cellobiose]: the IC50 on CtCel7A (25°C) worked out at 410 ± 60 µM; at CtCel7A (35°C) it was 1080 ± 220 µM; on CtCel7A (50°C, IC50 increased with hydrolysis time) it was 2480 ± 910 µM; on TrCel6A, 20000 ± 1400 µM.
